“And” between values parts separate entries of the source, which are not always exact repeats. Equal entries are not always repeated. Where two headings read alike, the source gives them in different places.
How the values were obtained:
SERT = settings: cited from earlier work
5-HT2ARs = biological target: 5-HT2ARs; design: method as in PMID 11734182; settings: read-out: pKi at 5-HT2ARs (converted); cited from earlier work
5-HT2AR = biological target: T1, 5-HT2AR (Homo sapiens, UniProt P28223); experiment: Influence of antagonists on α-methyl-5-HT-induced vasoconstriction of isolated human pulmonary arteries; type: cell-based; settings: for Tension (contractile response to α-methyl-5-HT in absolute terms): α-methyl-5-HT in presence of ketanserin 0.01 μM or LY393558 0.1 μM, control α-methyl-5-HT (DMSO)
T1 construct: Arterial rings (3–5 mm in length and 2–4 mm in outer diameter) were mounted in 10 ml organ baths; from tissue; host or cells: human pulmonary artery rings from lung tissue removed at lobectomy or pneumonectomy
T1 sequence (P28223 whole entry): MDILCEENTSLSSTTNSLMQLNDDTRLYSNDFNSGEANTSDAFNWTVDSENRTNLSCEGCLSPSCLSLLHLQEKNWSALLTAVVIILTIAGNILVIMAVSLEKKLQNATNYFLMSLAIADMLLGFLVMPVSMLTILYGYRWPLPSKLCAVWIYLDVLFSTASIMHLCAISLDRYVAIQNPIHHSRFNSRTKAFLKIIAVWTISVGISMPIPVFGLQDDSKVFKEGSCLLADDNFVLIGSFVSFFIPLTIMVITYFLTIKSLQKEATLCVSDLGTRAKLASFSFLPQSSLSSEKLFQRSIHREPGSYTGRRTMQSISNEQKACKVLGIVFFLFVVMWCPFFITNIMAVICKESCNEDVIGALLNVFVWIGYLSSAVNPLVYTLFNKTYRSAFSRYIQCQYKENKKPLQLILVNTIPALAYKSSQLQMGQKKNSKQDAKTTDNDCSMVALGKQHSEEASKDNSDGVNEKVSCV
Procedure: (§1) Lung tissue was received from 29 men and 5 women (mean age 65 ± 2 years) with lung carcinoma (without PAH) undergoing lobectomy or pneumonectomy. Before the operation, they received cephalosporins and heparin as anti-infection and antithrombotic prophylaxis, respectively. Isolation of hPAs has been described previously. When necessary, endothelium was disrupted by rubbing of the lumen with horse hair. […] Muscle tension was recorded by a force displacement transducer (BIO-SYS-TECH). After equilibration, rings were exposed to high KCl (60 mM) Tyrode’s solution (equimolar substitution of NaCl by KCl) to check tissue viability and maximum contraction and to phenylephrine (1 µM) followed by acetylcholine (10 µM) to verify if the endothelium is intact. […] Concentrations of antagonists and citalopram were taken from previous studies. In each preparation, only one experimental curve was determined.
(§2) Results are given as mean ± SEM from n patients. Contractile responses were shown as percentages of the response to KCl 60 mM. GraphPad Prism 5.0 software was used to plot the mean data as sigmoidal CRCs. CRCs were used to determine potency (pEC50) and maximal effect (Emax) of agonists.

α1-adrenoceptor = experiment: Influence of LY393558 on phenylephrine-induced vasoconstriction of isolated human pulmonary arteries; type: cell-based
Procedure: (§3) Lung tissue was received from 29 men and 5 women (mean age 65 ± 2 years) with lung carcinoma (without PAH) undergoing lobectomy or pneumonectomy. Before the operation, they received cephalosporins and heparin as anti-infection and antithrombotic prophylaxis, respectively. Isolation of hPAs has been described previously. When necessary, endothelium was disrupted by rubbing of the lumen with horse hair. Arterial rings (3–5 mm in length and 2–4 mm in outer diameter) were mounted in 10 ml organ baths containing Tyrode’s solution [17] gassed with 95% O2 and 5% CO2 (37 °C, pH 7.4). Resting tension ranged from 19.6 to 24.5 mN (equivalent to transmural pressure of ~ 16 mmHg). Muscle tension was recorded by a force displacement transducer (BIO-SYS-TECH). After equilibration, rings were exposed to high KCl (60 mM) Tyrode’s solution (equimolar substitution of NaCl by KCl) to check tissue viability and maximum contraction and to phenylephrine (1 µM) followed by acetylcholine (10 µM) to verify if the endothelium is intact. […]. Concentrations of antagonists and citalopram were taken from previous studies. In each preparation, only one experimental curve was determined.
(§4) Results are given as mean ± SEM from n patients. Contractile responses were shown as percentages of the response to KCl 60 mM. GraphPad Prism 5.0 software was used to plot the mean data as sigmoidal CRCs. […]

human pulmonary arteries [1] = experiment: Influence of antagonists/inhibitors on 5-HT-induced vasoconstriction of isolated human pulmonary arteries; type: cell-based; settings: for rightward shift of the CRC for 5-HT (factor): ketanserin 0.1 µM, SB224289 0.2 µM, GR55562 1 µM
Procedure: as §3, §2

5-HT1B/1DR = biological target: T2, 5-HT1B/1DR (Homo sapiens, UniProt P28222); experiment: Influence of antagonists on 5-CT-induced vasoconstriction of isolated human pulmonary arteries; type: cell-based; settings: 5-CT in presence of SB224289 0.2 μM, GR55562 1 μM or LY393558 0.1 μM; control 5-CT (DMSO)
T2 construct: Arterial rings (3–5 mm in length and 2–4 mm in outer diameter) were mounted in 10 ml organ baths; from tissue; host or cells: human pulmonary artery rings from lung tissue removed at lobectomy or pneumonectomy
T2 sequence (P28222 whole entry): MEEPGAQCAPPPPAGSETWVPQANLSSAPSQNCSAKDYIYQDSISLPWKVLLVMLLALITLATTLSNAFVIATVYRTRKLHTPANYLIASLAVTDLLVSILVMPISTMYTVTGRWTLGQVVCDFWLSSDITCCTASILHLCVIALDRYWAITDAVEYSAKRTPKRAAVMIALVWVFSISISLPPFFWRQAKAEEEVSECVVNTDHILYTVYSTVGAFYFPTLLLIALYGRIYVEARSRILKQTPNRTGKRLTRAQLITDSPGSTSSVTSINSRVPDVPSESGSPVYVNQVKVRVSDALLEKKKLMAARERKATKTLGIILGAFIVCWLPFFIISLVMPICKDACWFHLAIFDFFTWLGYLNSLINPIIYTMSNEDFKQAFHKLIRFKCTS
Procedure: as §1, with “(BIO-SYS-TECH).” for “(BIO-SYS-TECH). After equilibration, rings were exposed to high KCl (60 mM) Tyrode’s solution (equimolar substitution of NaCl by KCl) to check tissue viability and maximum contraction and to phenylephrine (1 µM) followed by acetylcholine (10 µM) to verify if the endothelium is intact.”
as §2

[2] = biological target: T3, thromboxane A2 (TP) receptor (Homo sapiens, UniProt P21731); experiment: Influence of LY393558 on U46619-induced vasoconstriction of isolated human pulmonary arteries; type: cell-based
T3 construct: Arterial rings (3–5 mm in length and 2–4 mm in outer diameter) were mounted in 10 ml organ baths; from tissue; host or cells: human pulmonary artery rings from lung tissue removed at lobectomy or pneumonectomy
T3 sequence (P21731 1-343): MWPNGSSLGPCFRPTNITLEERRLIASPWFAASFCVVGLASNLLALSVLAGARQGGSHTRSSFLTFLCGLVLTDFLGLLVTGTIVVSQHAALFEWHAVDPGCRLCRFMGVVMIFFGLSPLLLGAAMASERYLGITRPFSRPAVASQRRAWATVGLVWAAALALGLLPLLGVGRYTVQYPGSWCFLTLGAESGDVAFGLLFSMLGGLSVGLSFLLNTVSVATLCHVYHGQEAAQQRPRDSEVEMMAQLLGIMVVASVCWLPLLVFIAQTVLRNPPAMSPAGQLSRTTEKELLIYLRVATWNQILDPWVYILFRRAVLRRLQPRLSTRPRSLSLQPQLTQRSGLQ
Procedure: as §3, §4

human pulmonary arteries [3] = experiment: Contraction of isolated human pulmonary arteries by agonists alone (organ bath, cumulative concentration-response curves); type: cell-based; settings: for EC50 / Emax: Homo sapiens
Procedure: as §3, §2

human pulmonary arteries [4] = test system: human pulmonary arteries; design: method as in PMID 19541711; settings: hPAs, other studies; cited from earlier work
[5] = 5-HT in presence of: citalopram 1 μM, SB224289 0.2 μM, GR55562 1 μM, ketanserin 0.1 μM or combinations, 45 min incubation, endothelium-intact
[6] = SB224289 0.2 μM, GR55562 1 μM, ketanserin 0.1 μM, endothelium-intact
[7] = agonist alone (control of LY393558 experiment, Fig. 3), endothelium-intact hPAs
[8] = agonist alone, DMSO vehicle control, endothelium-intact hPAs
[9] = agonist alone, endothelium removed (-ENDO)
[10] = agonist alone, endothelium-intact hPAs

CC(C)N1Cc2cc(S(C)(=O)=O)ccc2N(CCN2CC=C(c3c[nH]c4cc(F)ccc34)CC2)S1(=O)=O [LY393558]
Ki (SERT; read-out: Ki (SERT inhibition)): ~1 nM
Ki (5-HT2ARs): ~100 nM
Tension (contractile response to α-methyl-5-HT in absolute terms) (5-HT2AR): 10.5 ± 2.4 mN
effect on the vasoconstrictory effects of phenylephrine (α1-adrenoceptor; LY393558 0.1 µM): did not modify
pA2 at human α1 receptors (α1-adrenoceptor; from lack of effect of 0.1 µM on phenylephrine response): < 7.0
Tension (contractile response to 5-HT in absolute terms) (human pulmonary arteries [1]; 5-HT + LY393558 0.1 μM, control 5-HT (DMSO), endothelium-intact): 9.1 ± 1.7 mN
pA2 against 5-HT (human pulmonary arteries [1]; LY393558 0.1 μM, control 5-HT (DMSO), endothelium-intact): 8.3 and 8.25
Tension (contractile response to 5-CT in absolute terms) (5-HT1B/1DR): 7.3 ± 2.0 mN
effect on the vasoconstrictory effects of U46619 ([2]; LY393558 0.1 µM): did not modify
pA2 at human TP receptors ([2]; from lack of effect of 0.1 µM on U46619 response): < 7.0

CN(C)CCCc1cc(C(=O)Nc2ccc(-c3ccncc3)cc2)ccc1O [GR55562]
Tension (contractile response to 5-HT in absolute terms) (human pulmonary arteries [1]; [5]): 7.2 ± 2.0 mN
pA2 against 5-HT (human pulmonary arteries [1]; [6]): 6.6 and 6.63
rightward shift of the CRC for 5-HT (factor) (human pulmonary arteries [1]): 5

CNC[C@H](O)c1cccc(O)c1 [phenylephrine, (–)-phenylephrine]
EC50 (human pulmonary arteries [3]; [7]): 3160 nM
Emax (human pulmonary arteries [3]; agonist alone (control of LY393558 experiment, Fig. 3), endothelium-intact hPAs, read-out: Emax (relative to the KCl-induced response)): 68 ± 5%

CN(C)CCCC1(c2ccc(F)cc2)OCc2cc(C#N)ccc21 (stereo not drawn) [Citalopram]
Tension (contractile response to 5-HT in absolute terms) (human pulmonary arteries [1]; 5-HT + citalopram 1 μM, endothelium removed (-ENDO)): 7.6 ± 1.3 mN
Tension (contractile response to 5-HT in absolute terms) (human pulmonary arteries [1]; [5]): 8.9 ± 1.3 mN
influence on the potency of 5-HT (human pulmonary arteries [1]; citalopram 1 µM, endothelium-denuded preparations): enhanced the potency of 5-HT
influence on the CRC for 5-HT (human pulmonary arteries [1]; citalopram 1 µM, endothelium-intact hPAs): did not influence the CRC for 5-HT

NCCc1c[nH]c2ccc(C(N)=O)cc12 [5-CT, 5-carboxamidotryptamine]
Emax (percentage of the response to 60 mM KCl) (human pulmonary arteries [3]; [8]): 73 ± 6%
Tension (contractile response in absolute terms) (human pulmonary arteries [3]; [8]): 8.0 ± 1.0 mN
pEC50 (human pulmonary arteries [3]; [8]): 6.36 ± 0.09
efficacy lower than that of 5-HT (human pulmonary arteries [3]; hPAs, this study): 20%
efficiency less than that of 5-HT (human pulmonary arteries [4]): 50%

NCCc1c[nH]c2ccc(O)cc12 [5-HT, serotonin]
EC50 (human pulmonary arteries [3]; [8]): 457 nM
EC50 (human pulmonary arteries [3]; [9]): 1700 nM
EC50 (human pulmonary arteries [3]; [10]): 631 nM
Emax (human pulmonary arteries [3]; read-out: Emax (percentage of the response to 60 mM KCl), agonist alone, DMSO vehicle control, endothelium-intact hPAs): 82 ± 4%
Emax (human pulmonary arteries [3]; read-out: Emax (percentage of the response to 60 mM KCl), agonist alone, endothelium removed (-ENDO)): 92 ± 4%
Emax (human pulmonary arteries [3]; read-out: Emax (percentage of the response to 60 mM KCl), agonist alone, endothelium-intact hPAs): 94 ± 4%
Tension (contractile response in absolute terms) (human pulmonary arteries [3]; [8]): 8.5 ± 1.8 mN
Tension (contractile response in absolute terms) (human pulmonary arteries [3]; [9]): 9.4 ± 1.2 mN
Tension (contractile response in absolute terms) (human pulmonary arteries [3]; [10]): 9.7 ± 1.0 mN

CC(N)Cc1c[nH]c2ccc(O)cc12 (stereo not drawn) [α-Methyl-5-HT, α-methyl-5-HT]
Emax (percentage of the response to 60 mM KCl) (human pulmonary arteries [3]; [8]): 79 ± 5%
Tension (contractile response in absolute terms) (human pulmonary arteries [3]; [8]): 10.5 ± 1.0 mN
pEC50 (human pulmonary arteries [3]; [8]): 5.89 ± 0.08

CCCCC[C@H](O)/C=C/[C@@H]1[C@@H](C/C=C\CCCC(=O)O)[C@H]2CO[C@@H]1C2 [U46619]
Emax (relative to the KCl-induced response) (human pulmonary arteries [3]; [7]): 109 ± 6%
pEC50 (human pulmonary arteries [3]; [7]): 8.60 ± 0.10

O=C(c1ccc(F)cc1)C1CCN(CCn2c(=O)[nH]c3ccccc3c2=O)CC1 [Ketanserin, ketanserin]
vasoconstriction induced by α-methyl-5-HT diminished by (5-HT2AR; LY393558, ketanserin 0.01 µM (Discussion)): 30%
Tension (contractile response to α-methyl-5-HT in absolute terms) (5-HT2AR): 9.7 ± 2.3 mN
Tension (contractile response to 5-HT in absolute terms) (human pulmonary arteries [1]; [5]): 7.7 ± 1.2 mN
pA2 against 5-HT (human pulmonary arteries [1]; [6]): 7.40
pA2 against 5-HT (human pulmonary arteries [1]; SB224289 0.2 μM, GR55562 1 μM, ketanserin 0.1 μM, endothelium-intact, listed as ketanserin): 7.4
rightward shift of the CRC for 5-HT (factor) (human pulmonary arteries [1]): 3

Cc1nc(-c2ccc(-c3ccc(C(=O)N4CCc5cc6c(cc54)C4(CCN(C)CC4)CO6)cc3)c(C)c2)no1 [SB224289]
affinity for the SERT (SERT): has no affinity for the SERT
Tension (contractile response to 5-HT in absolute terms) (human pulmonary arteries [1]; [5]): 7.0 ± 1.9 mN
pA2 against 5-HT (human pulmonary arteries [1]; [6]): 7.0 and 7.02
Tension (contractile response to 5-CT in absolute terms) (5-HT1B/1DR): 10.0 ± 3.3 mN
